Measurements taken from patent US20240309038A1, “NOVEL GALACTOSIDE INHIBITOR OF GALECTINS” (GALECTO BIOTECH AB, priority 2020, published 2024).

What follows are molecules tested against Gal-3 (Homo sapiens, UniProt P17931) (assay: Fluorescence anisotropy assay, inhibition of galectin / fluorescein tagged saccharide probe interaction).
Gal-3, sequence (P17931 whole entry, species assumed): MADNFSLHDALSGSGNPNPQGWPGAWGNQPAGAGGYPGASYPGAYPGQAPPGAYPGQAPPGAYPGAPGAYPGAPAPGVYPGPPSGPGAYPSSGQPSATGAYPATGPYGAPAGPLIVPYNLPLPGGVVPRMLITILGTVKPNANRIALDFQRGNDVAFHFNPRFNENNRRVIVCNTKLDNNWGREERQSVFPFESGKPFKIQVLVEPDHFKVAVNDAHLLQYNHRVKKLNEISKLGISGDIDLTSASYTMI
Type: binding
Protocol: The affinity of Example 1-59 for galectins were determined by a fluorescence anisotropy assay where the compound was used as an inhibitor of the interaction between galectin and a fluorescein tagged saccharide probe as described Sörme, P., Kahl-Knutsson, B., Huflejt, M., Nilsson, U. J., and Leffler H. (2004) Fluorescence polarization as an analytical tool to evaluate galectin-ligand interactions. Anal. Biochem. 334: 36-47, (Sarme et al., 2004)
`Cc1nnc([C@@H]2OC(CO)[C@H](O)C(n3cc(-c4cc(F)c(Cl)c(F)c4)cn3)C2O)n1-c1cc(Cl)ccc1C(F)(F)F` (single isomer, unassigned) [Example 10, 1-{3-{3-[4-(4-Chloro-3,5-difluorophenyl)-1H-1,2-pyrazol-1-yl]-3-deoxy-β-D-galactopyranosyl}-5-methyl-4H-1,2,4-triazol-4-yl}-5-chloro-2-(trifluoromethyl)benzene] showed a Kd of 370 nM.
`Cc1nc([C@@H]2OC(CO)[C@H](O)C(n3cc(-c4cc(F)c(F)c(F)c4)cn3)C2O)n(-c2ccc3ncsc3c2)n1` (stereo in doubt) [Example 34, 6-{5-{3-Deoxy-3-[4-(3,4,5-trifluorophenyl)-1H-1,2-pyrazol-1-yl]-β-D-galactopyranosyl}-3-methyl-1H-1,2,4-triazol-1-yl}benzothiazole] showed a Kd of 9 nM.
For `Cc1nc([C@@H]2OC(CO)[C@H](O)C(n3cc(-c4cc(F)c(F)c(F)c4)cn3)C2O)n(-c2cc(Cl)ccc2C(F)(F)F)n1` (stereo in doubt) [Example 3, 5-Chloro-1-{5-{3-deoxy-3-[4-(3,4,5-trifluorophenyl)-1H-1,2-pyrazol-1-yl]-β-D-galactopyranosyl}-3-methyl-1H-1,2,4-triazol-1-yl}-2-(trifluoromethyl)benzene], the Kd was 9 nM.
In the case of `Cc1nc([C@@H]2OC(CO)[C@H](O)C(n3cc(-c4ccc(Cl)cc4)cn3)C2O)n(-c2cc(Cl)ccc2C(F)(F)F)n1` (stereo in doubt) [Example 59, 1-{5-{3-[4-(4-Chlorophenyl)-1H-1,2-pyrazol-1-yl]-3-deoxy-β-D-galactopyranosyl}-3-methyl-1H-1,2,4-triazol-1-yl}-5-chloro-2-(trifluoromethyl)benzene], the Kd is reported as 51 nM.
In the case of `Cc1nc([C@@H]2OC(CO)[C@H](O)C(n3cc(-c4cc(F)c(F)c(F)c4)cn3)C2O)n(-c2cncc(Br)c2)n1` (stereo in doubt) [Example 19, 5-Bromo-3-{5-{3-deoxy-3-[4-(3,4,5-trifluorophenyl)-1H-1,2-pyrazol-1-yl]-β-D-galactopyranosyl}-3-methyl-1H-1,2,4-triazol-1-yl}pyridine], the Kd is reported as 25 nM.
`Cc1nc([C@@H]2OC(CO)[C@H](O)C(n3cc(-c4cc(F)c(Cl)cn4)cn3)C2O)n(-c2cc(Cl)ccc2C(F)(F)F)n1` (stereo in doubt) [Example 14, 1-{5-{3-[4-(5-Chloro-4-fluoropyridin-2-yl)-1H-1,2-pyrazol-1-yl]-3-deoxy-β-D-galactopyranosyl}-3-methyl-1H-1,2,4-triazol-1-yl}-5-chloro-2-(trifluoromethyl)benzene] was tested, and the Kd was 24 nM.
In the case of `Cc1nc([C@@H]2OC(CO)[C@H](O)C(n3cc(-c4cc(F)c(F)c(F)c4)cn3)C2O)n(-c2ncc(Cl)s2)n1` (stereo in doubt) [Example 33, 5-Chloro-2-{5-{3-deoxy-3-[4-(3,4,5-trifluorophenyl)-1H-1,2-pyrazol-1-yl]-β-D-galactopyranosyl}-3-methyl-1H-1,2,4-triazol-1-yl}-thiazole], the Kd is reported as 520 nM.
With `Cc1nc([C@@H]2OC(CO)[C@H](O)C(n3cc(-c4cc(F)c(Cl)c(F)c4)c(C(N)=O)n3)C2O)n(-c2cc(Cl)ccc2C(F)(F)F)n1` (stereo in doubt) [Example 32, 1-{5-{3-[3-Aminocarbonyl-4-(4-chloro-3,5-difluorophenyl)-1H-1,2-pyrazol-1-yl]-3-deoxy-β-D-galactopyranosyl}-3-methyl-1H-1,2,4-triazol-1-yl}-5-chloro-2-(trifluoromethyl)benzene] the Kd was 23 nM.
Molecule `Cc1nc([C@@H]2OC(CO)[C@H](O)C(n3cc(-c4cc(F)c(F)c(F)c4)cn3)C2O)n(-c2cc3sc(C)nc3cc2C#N)n1` (stereo in doubt) [Example 44, 5-Cyano-6-{5-{3-deoxy-3-[4-(3,4,5-trifluorophenyl)-1H-1,2-pyrazol-1-yl]-β-D-galactopyranosyl}-3-methyl-1H-1,2,4-triazol-1-yl}-2-methylbenzothiazole] has a Kd of 17 nM.
In the case of `Cc1nc([C@@H]2OC(CO)[C@H](O)C(n3cc(-c4cc(F)c(Cl)c(F)c4)c(C)n3)C2O)n(-c2cc(Cl)ccc2C(F)(F)F)n1` (stereo in doubt) [Example 12, 1-{5-{3-[4-(4-Chloro-3,5-difluorophenyl)-3-methyl-1H-1,2-pyrazol-1-yl]-3-deoxy-β-D-galactopyranosyl}-3-methyl-1H-1,2,4-triazol-1-yl}-5-chloro-2-(trifluoromethyl)benzene], the Kd is reported as 11 nM.
In the case of `C#CCc1c(F)cc(-c2cnn(C3C(O)[C@H](c4nc(C)nn4-c4cc(Cl)ccc4C(F)(F)F)OC(CO)[C@@H]3O)c2)cc1F` (stereo in doubt) [Example 18, 5-Chloro-1-{5-{3-deoxy-3-{4-[3,5-difluoro-4-(2-propyn-1-yl)phenyl]-1H-1,2-pyrazol-1-yl}-β-D-galactopyranosyl}-3-methyl-1H-1,2,4-triazol-1-yl}-2-(trifluoromethyl)benzene], the Kd is reported as 26 nM.
`Cc1nnc([C@@H]2OC(CO)[C@H](O)C(n3cc(-c4cc(F)c(Cl)c(F)c4)cn3)C2O)n1-c1cc(Cl)ccc1C(F)(F)F` (single isomer, unassigned) [Example 11, 1-{3-{3-[4-(4-Chloro-3,5-difluorophenyl)-1H-1,2-pyrazol-1-yl]-3-deoxy-β-D-galactopyranosyl}-5-methyl-4H-1,2,4-triazol-4-yl}-5-chloro-2-(trifluoromethyl)benzene] gave a Kd of 7 nM.
`Cc1nc([C@@H]2OC(CO)[C@H](O)C(n3cc(-c4cc(F)c(F)c(F)c4)c(C)n3)C2O)n(-c2cc(Cl)ccc2C(F)(F)F)n1` (stereo in doubt) [Example 49, 5-Chloro-1-{5-{3-deoxy-3-[4-(3,4,5-trifluorophenyl)-3-methyl-1H-1,2-pyrazol-1-yl]-β-D-galactopyranosyl}-3-methyl-1H-1,2,4-triazol-1-yl}-2-(trifluoromethyl)benzene] was tested, and the Kd was 13 nM.
Work on `Cc1nc([C@@H]2OC(CO)[C@H](O)C(n3cc(-c4cc(F)c(C)cn4)cn3)C2O)n(-c2cc(Cl)ccc2C(F)(F)F)n1` (stereo in doubt) [Example 15, 5-Chloro-1-{5-{3-deoxy-3-[4-(4-fluoro-5-methylpyridin-2-yl)-1H-1,2-pyrazol-1-yl]-β-D-galactopyranosyl}-3-methyl-1H-1,2,4-triazol-1-yl}-2-(trifluoromethyl)benzene] yielded a Kd of 13 nM.
In the case of `Cc1nc([C@@H]2OC(CO)[C@H](O)C(n3cc(-c4cc(F)c(Cl)c(F)c4)c(C(=O)O)n3)C2O)n(-c2cc(Cl)ccc2C(F)(F)F)n1` (stereo in doubt) [Example 30, 1-{5-{3-[3-Carboxy-4-(4-chloro-3,5-difluorophenyl)-1H-1,2-pyrazol-1-yl]-3-deoxy-β-D-galactopyranosyl}-3-methyl-1H-1,2,4-triazol-1-yl}-5-chloro-2-(trifluoromethyl)benzene], the Kd is reported as 6 nM.
`Cc1nc([C@@H]2OC(CO)[C@H](O)C(n3cc(-c4ccc(C)c(F)c4)cn3)C2O)n(-c2cc(Cl)ccc2C(F)(F)F)n1` (stereo in doubt) [Example 57, 5-Chloro-1-{5-{3-deoxy-3-[4-(3-fluoro-4-methylphenyl)-1H-1,2-pyrazol-1-yl]-β-D-galactopyranosyl}-3-methyl-1H-1,2,4-triazol-1-yl}-2-(trifluoromethyl)benzene] was tested, and the Kd was 11 nM.
Work on `Cc1nc([C@@H]2OC(CO)[C@H](O)C(n3cc(-c4cc(F)c(F)c(F)c4)cn3)C2O)n(-c2cc(Br)cnc2C#N)n1` (stereo in doubt) [Example 22, 5-Bromo-2-cyano-3-{5-{3-deoxy-3-[4-(3,4,5-trifluorophenyl)-1H-1,2-pyrazol-1-yl]-β-D-galactopyranosyl}-3-methyl-1H-1,2,4-triazol-1-yl}pyridine] yielded a Kd of 33 nM.
`Cc1nc([C@@H]2OC(CO)[C@H](O)C(n3cc(-c4cc(F)c(Cl)c(F)c4)cn3)C2O)n(-c2cc(Cl)cnc2C(F)(F)F)n1` (stereo in doubt) [Example 28, 3-{5-{3-[4-(4-Chloro-3,5-difluorophenyl)-1H-1,2-pyrazol-1-yl]-3-deoxy-β-D-galactopyranosyl}-3-methyl-1H-1,2,4-triazol-1-yl}-5-chloro-2-(trifluoromethyl)pyridine] showed a Kd of 15 nM.
Molecule `Cc1nc([C@@H]2OC(CO)[C@H](O)C(n3cc(-c4cc(F)c(F)c(F)c4)c(-c4cccc(F)c4)n3)C2O)n(-c2cc(Cl)ccc2C(F)(F)F)n1` (stereo in doubt) [Example 54, 5-Chloro-1-{5-{3-deoxy-3-[4-(3,4,5-trifluorophenyl)-3-(3-fluorophenyl)-1H-1,2-pyrazol-1-yl]-β-D-galactopyranosyl}-3-methyl-1H-1,2,4-triazol-1-yl}-2-(trifluoromethyl)benzene] has a Kd of 240 nM.
For `Cc1nc([C@@H]2OC(CO)[C@H](O)C(n3cc(-c4cc(F)c(F)c(F)c4)c(C#N)n3)C2O)n(-c2cc(Cl)ccc2C(F)(F)F)n1` (stereo in doubt) [Example 51, 5-Chloro-1-{5-{3-[3-cyano-4-(3,4,5-trifluorophenyl)-1H-1,2-pyrazol-1-yl]-3-deoxy-β-D-galactopyranosyl}-3-methyl-1H-1,2,4-triazol-1-yl}-2-(trifluoromethyl)benzene], the Kd was 15 nM.
`Cc1nc([C@@H]2OC(CO)[C@H](O)C(n3cc(-c4cc(F)c(F)c(F)c4)cn3)C2O)n(-c2cnc3nc(C)sc3c2)n1` (stereo in doubt) [Example 45, 6-{5-{3-Deoxy-3-[4-(3,4,5-trifluorophenyl)-1H-1,2-pyrazol-1-yl]-β-D-galactopyranosyl}-3-methyl-1H-1,2,4-triazol-1-yl}-2-methylthiazolo[4,5-b]pyridine] was tested, and the Kd was 35 nM.
In the case of `Cc1nc([C@@H]2OC(CO)[C@H](O)C(n3cc(-c4cc(F)c(F)c(F)c4)cn3)[C@@H]2O)n(-c2cnc(C#N)c(Cl)c2)n1` (stereo partly drawn) [Example 23, 3-Chloro-2-cyano-5-{5-{3-deoxy-3-[4-(3,4,5-trifluorophenyl)-1H-1,2-pyrazol-1-yl]-β-D-galactopyranosyl}-3-methyl-1H-1,2,4-triazol-1-yl}pyridine], the Kd is reported as 240 nM.
